PubChem BioAssay (NCI)
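1) Cells in 96-well plates. 2) Compound, 48 h, 5 concentrations. 3) Linear interpolation between surrounding doses. 4) Unreached endpoint = highest concentration. The concentration for full growth arrest is given as TGI.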

Tests used:
Test in all cases: NCI tumour cell line growth inhibition, 48 h
KM12 colon = tested on: KM12 colon
HT29 colon = tested on: HT29 colon
HS 578T breast = tested on: HS 578T breast
M14 melanoma = tested on: M14 melanoma
SR leukemia = tested on: SR leukemia
SK-OV-3 ovarian = tested on: SK-OV-3 ovarian
NCI-H23 lung = tested on: NCI-H23 lung
RPMI-8226 leukemia = tested on: RPMI-8226 leukemia
EKVX NSCLC = tested on: EKVX NSCLC
COLO 205 colon = tested on: COLO 205 colon
MOLT-4 leukemia = tested on: MOLT-4 leukemia
SN12C renal = tested on: SN12C renal
UACC-257 melanoma = tested on: UACC-257 melanoma
TK-10 renal = tested on: TK-10 renal
SNB-19 CNS = tested on: SNB-19 CNS
MCF7 breast = tested on: MCF7 breast
CAKI-1 renal = tested on: CAKI-1 renal
MDA-MB-435 = tested on: MDA-MB-435
RXF 393 renal = tested on: RXF 393 renal
UACC-62 melanoma = tested on: UACC-62 melanoma
SF-268 CNS = tested on: SF-268 CNS
OVCAR-3 ovarian = tested on: OVCAR-3 ovarian
SF-539 CNS = tested on: SF-539 CNS
NCI/ADR-RES ovarian = tested on: NCI/ADR-RES ovarian
MDA-N = tested on: MDA-N
HCT-116 colon = tested on: HCT-116 colon
SK-MEL-28 melanoma = tested on: SK-MEL-28 melanoma
OVCAR-5 ovarian = tested on: OVCAR-5 ovarian
SNB-75 CNS = tested on: SNB-75 CNS
CCRF-CEM leukemia = tested on: CCRF-CEM leukemia
BT-549 breast = tested on: BT-549 breast
786-0 renal = tested on: 786-0 renal
SW-620 colon = tested on: SW-620 colon
UO-31 renal = tested on: UO-31 renal
K-562 leukemia = tested on: K-562 leukemia
MALME-3M melanoma = tested on: MALME-3M melanoma
HCT-15 colon = tested on: HCT-15 colon
PC-3 prostate = tested on: PC-3 prostate
U251 CNS = tested on: U251 CNS
T-47D breast = tested on: T-47D breast
NCI-H226 lung = tested on: NCI-H226 lung
A498 renal = tested on: A498 renal
A549 NSCLC = tested on: A549 NSCLC
MDA-MB-231 breast = tested on: MDA-MB-231 breast
SK-MEL-2 melanoma = tested on: SK-MEL-2 melanoma
OVCAR-8 ovarian = tested on: OVCAR-8 ovarian
HL-60(TB) leukemia = tested on: HL-60(TB) leukemia
DU-145 prostate = tested on: DU-145 prostate
LOX IMVI melanoma = tested on: LOX IMVI melanoma
HCC-2998 colon = tested on: HCC-2998 colon
NCI-H460 lung = tested on: NCI-H460 lung
OVCAR-4 ovarian = tested on: OVCAR-4 ovarian
ACHN renal = tested on: ACHN renal
HOP-62 NSCLC = tested on: HOP-62 NSCLC
NCI-H522 lung = tested on: NCI-H522 lung
SK-MEL-5 melanoma = tested on: SK-MEL-5 melanoma
SF-295 CNS = tested on: SF-295 CNS
IGROV1 ovarian = tested on: IGROV1 ovarian
HOP-92 NSCLC = tested on: HOP-92 NSCLC

Measured: TGI

COC(=O)N1N=C(c2ccccc2)C1c1ccccc1 (centres undefined)
88 µM: NCI-H23 lung
94 µM: OVCAR-8 ovarian
77.4 µM: UACC-257 melanoma
63.3 µM: UACC-62 melanoma
77.1 µM: NCI-H226 lung
72.7 µM: K-562 leukemia
82.8 µM: LOX IMVI melanoma
52.9 µM: UO-31 renal
69.2 µM: NCI/ADR-RES ovarian
not listed: ACHN renal | HOP-62 NSCLC | NCI-H522 lung | SK-MEL-5 melanoma | SF-295 CNS | IGROV1 ovarian | HOP-92 NSCLC
> 100 µM: all other assays above

O=C(/C=C/c1ccc2c(c1)OCO2)Cc1nc2ccccc2[nH]c1=O
73.3 µM: HOP-92 NSCLC
60.2 µM: SN12C renal
35.2 µM: HOP-62 NSCLC
33.5 µM: SK-OV-3 ovarian
40 µM: HS 578T breast
74.3 µM: ACHN renal
49.4 µM: SNB-19 CNS
33.6 µM: RXF 393 renal
46.1 µM: MDA-MB-435
71.6 µM: DU-145 prostate
86.8 µM: HCC-2998 colon
41.7 µM: MDA-MB-231 breast
50.9 µM: UO-31 renal
48.1 µM: CAKI-1 renal
81.5 µM: OVCAR-3 ovarian
34.2 µM: TK-10 renal | U251 CNS | T-47D breast
50.7 µM: SK-MEL-2 melanoma
61.5 µM: SK-MEL-28 melanoma
47.9 µM: PC-3 prostate
55.3 µM: SF-268 CNS
65.7 µM: A498 renal
52.7 µM: SF-295 CNS
59.5 µM: UACC-257 melanoma
32.5 µM: 786-0 renal
62 µM: A549 NSCLC
43.4 µM: MALME-3M melanoma
not listed: SNB-75 CNS | NCI-H226 lung | OVCAR-4 ovarian
> 100 µM: all other assays above

CC(C)=CCC[C@@H](C)C1=C(O)C(N)=C(C)C(=O)C1=O
89.5 µM: SF-539 CNS
10.9 µM: HL-60(TB) leukemia
> 71.1 µM: UO-31 renal
> 93.4 µM: UACC-62 melanoma
> 40.2 µM: IGROV1 ovarian
> 73.2 µM: M14 melanoma
65.4 µM: ACHN renal
> 72.3 µM: SF-295 CNS
> 86 µM: SK-MEL-5 melanoma
> 78.4 µM: SR leukemia
> 88.4 µM: T-47D breast
> 56.6 µM: MOLT-4 leukemia
> 64.8 µM: OVCAR-8 ovarian
> 83.6 µM: CAKI-1 renal
24.7 µM: NCI/ADR-RES ovarian
98.6 µM: RPMI-8226 leukemia
not listed: NCI-H522 lung
> 100 µM: all other assays above

CCOC(=O)c1ccc(Nc2nc3ccc(C(F)(F)F)cc3nc2C(=O)OCC)cc1
not listed: SK-MEL-2 melanoma | OVCAR-4 ovarian
> 100 µM: all other assays above

CCN(CC)CCO/N=C1\CC[C@H]2[C@@H]3CCc4cc(OC)ccc4[C@H]3CC[C@]12C
2.54 µM: UACC-257 melanoma
2.04 µM: LOX IMVI melanoma
12.4 µM: OVCAR-5 ovarian
3.27 µM: 786-0 renal
16.7 µM: DU-145 prostate
7.05 µM: SF-268 CNS
9.76 µM: EKVX NSCLC
6.96 µM: A549 NSCLC
23.9 µM: NCI/ADR-RES ovarian
7.13 µM: T-47D breast
2.53 µM: K-562 leukemia
9.49 µM: MCF7 breast
5.86 µM: KM12 colon
2.92 µM: HCT-116 colon
3.78 µM: SF-295 CNS
8.54 µM: MDA-MB-231 breast
1.48 µM: MDA-MB-435
15.5 µM: OVCAR-3 ovarian
3.72 µM: MOLT-4 leukemia
4.69 µM: NCI-H226 lung
25 µM: SNB-19 CNS
19 µM: BT-549 breast
2.13 µM: CAKI-1 renal
9.25 µM: SNB-75 CNS
10.2 µM: IGROV1 ovarian
7.25 µM: HOP-92 NSCLC
5.07 µM: SK-MEL-2 melanoma
3.73 µM: HOP-62 NSCLC
1.94 µM: HCT-15 colon
3.21 µM: SK-MEL-5 melanoma
9.29 µM: PC-3 prostate
2.02 µM: UACC-62 melanoma
3.47 µM: SW-620 colon
4.26 µM: RPMI-8226 leukemia
13.2 µM: ACHN renal
22.4 µM: OVCAR-4 ovarian
1.28 µM: SK-MEL-28 melanoma
15.9 µM: TK-10 renal
4.31 µM: SR leukemia
7.36 µM: HS 578T breast
1.82 µM: M14 melanoma
3.28 µM: MALME-3M melanoma
7.77 µM: UO-31 renal
3.66 µM: MDA-N
2.07 µM: HT29 colon
7.02 µM: NCI-H522 lung
8.12 µM: SN12C renal
9.28 µM: A498 renal
3.03 µM: COLO 205 colon
3.33 µM: HCC-2998 colon
7.95 µM: OVCAR-8 ovarian
4.86 µM: CCRF-CEM leukemia
3.12 µM: HL-60(TB) leukemia
18.6 µM: NCI-H23 lung
11.6 µM: U251 CNS
2.15 µM: NCI-H460 lung
3.92 µM: RXF 393 renal | SF-539 CNS

COc1cc(C(O)c2ccc3c(c2)OCO3)cc(OC)c1OC (centres undefined)
not listed: RXF 393 renal
> 100 µM: all other assays above

COc1c(O)c(OC)c2oc(-c3ccc(O)cc3)c(OC)c(=O)c2c1O
34.1 µM: SF-268 CNS
94.9 µM: HOP-62 NSCLC
53.7 µM: SK-OV-3 ovarian
74.9 µM: OVCAR-3 ovarian
55.7 µM: T-47D breast
57 µM: HS 578T breast
51.4 µM: IGROV1 ovarian
86.3 µM: 786-0 renal
70.9 µM: NCI-H522 lung
not listed: RXF 393 renal | SNB-75 CNS | OVCAR-4 ovarian | HOP-92 NSCLC
> 100 µM: all other assays above
